Data reported in US20090088432A1, “Thiazolinones and Oxazolinones and their Use as Ptp1b Inhibitors” (priority 2005, published 2009).

target: T1, Recombinant human Protein-tyrosine phosphatase1B (PTP1B) (Homo sapiens, UniProt P18031); assay: PTP1B enzyme inhibition assay (pNpp substrate); type: biochemical; conditions: inhibition of recombinant human PTP1B, pNpp 5 mM, 30 mins at 25° C; inhibitor concentration not given
T1 construct: Recombinant human Protein-tyrosine phosphatase1B (PTP1B) (amino acid 1-322 Biomol, USA); purchased Biomol, USA
T1 sequence (P18031 1-322): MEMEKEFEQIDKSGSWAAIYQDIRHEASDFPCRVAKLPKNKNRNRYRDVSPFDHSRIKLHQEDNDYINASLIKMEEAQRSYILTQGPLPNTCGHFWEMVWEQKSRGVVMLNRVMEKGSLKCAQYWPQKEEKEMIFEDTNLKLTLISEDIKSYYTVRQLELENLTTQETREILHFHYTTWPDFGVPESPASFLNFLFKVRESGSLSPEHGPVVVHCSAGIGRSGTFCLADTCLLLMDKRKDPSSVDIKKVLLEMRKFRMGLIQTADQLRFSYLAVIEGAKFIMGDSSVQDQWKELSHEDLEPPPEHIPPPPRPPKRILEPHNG
Experimental: Protein tyrosine phosphatase 1B (PTP1B) is an intracellular enzyme which functions by removing the phosphate groups from phosphorylated tyrosine residues of cellular proteins. PTP1B has been implicated as a negative regulator of insulin action and therefore is of therapeutic interest. The ability of the test compounds to inhibit the activity of PTP1B is determined using an enzyme inhibition assay.
The assay is performed using two independent substrates of PTP1B namely, p-nitrophenyl phosphate (pNpp) and the phosphorylated Epidermal growth factor receptor peptide (EGFR).
In the assay performed with pNpp, the action of PTP1B results in the release of p-nitrophenol, which is yellow in colour and can be measured at 410 nm. In the case of the assay using EGFR, action of PTP1B results in the release of free phosphate group. This is trapped using a reagent containing ammonium molybdate and malachite green resulting in a colored complex whose absorbance can be measured at 620 nm.
1× Assay buffer 50 mM HEPES (pH 7.4) • 1 mM EDTA • 1 mM DTT • 0.05% Igepal® CA-630
Dilute recombinant Human PTP1B 1:150 in 1× Assay buffer for 10× stock,
Prepare 10× stock of pNpp (50 mM) in 1× Assay buffer
Prepare 100× stock in 100% DMSO, dilute 1:10 with 1× Assay buffer to get 10× stock in 10% DMSO.
PTP1B inhibition assay was performed using recombinant human PTP1B. PTP1B (0.016 μg/well) was incubated in a buffer containing 50 mM HEPES, 1 mM DTT, 1 mM EDTA and 0.05% Igepal® CA-630 with or without inhibitor (10× stock, final DMSO concentration is 1%) for 30 mins at 25° C. This was followed by addition of p-Nitrophenyl phosphate (pNpp) substrate (5 mM). The final volume of the reaction mixture is 50 μL and experiment was done in 96 well half area plate. The incubation was continued for 30 mins at 25° C. The conversion of pNpp to p-Nitrophenol (pNp) was measured at 410 nm in Spectramaxplus Spectrophotometer (Molecular Devices, USA).

| Activity Score | SMILES |
| --- | --- |
| (+) (+ = 10-20% inhibition) | O=C(Cc1ccc(NC2=NC(=O)C(=Cc3ccc(-n4cccn4)cc3)S2)cc1)NS(=O)(=O)c1ccccc1 [Compound 103, N-(2-{4-[4-Oxo-5-(4-pyrazol-1-yl-benzylidene)-4,5-dihydro-thiazol-2-ylamino]-phenyl}-acetyl)-benzenesulfonamide] |
| (++) (++ = 20-50% inhibition) | Cc1ccc(S(=O)(=O)NC(=O)Cc2ccc(NC3=NC(=O)C(=Cc4cc5ccccc5cc4OCc4ccccc4)S3)cc2)cc1.[Na] [Compound 104, N-(2-{4-[5-(3-Benzyloxy-naphthalen-2-ylmethylene)-4-oxo-4,5-dihydro-thiazol-2-ylamino]-phenyl}-acetyl)-4-methyl-benzenesulfonamide sodium salt] |
| (+++) (+++ = >50% inhibition) | Cc1ccc(S(=O)(=O)NC(=O)Cc2ccc(NC3=NC(=O)C(=Cc4ccc5c(c4)OCCO5)S3)cc2)cc1 [Compound 125, N-(2-{4-[5-(2,3-Dihydro-benzo[1,4]dioxin-6-ylmethylene)-4-oxo-4,5-dihydro-thiazol-2-ylamino]-phenyl}-acetyl)-4-methyl-benzenesulfonamide] |
| (+++) (+++ = >50% inhibition) | Cc1ccc(S(=O)(=O)NC(=O)Cc2ccc(NC3=NC(=O)C(=Cc4ccc(-n5cnnn5)c(OCc5ccccc5)c4)S3)cc2)cc1.[Na] [Compound 131, N-(2-{4-[5-(3-Benzyloxy-4-tetrazol-1-yl-benzylidene)-4-oxo-4,5-dihydro-thiazol-2-ylamino]-phenyl}-acetyl)-4-methyl-benzenesulfonamide sodium salt] |
| (+++) (+++ = >50% inhibition) | O=C(O)Cc1ccc(NC2=NC(=O)C(=Cc3ccc4[nH]ccc4c3)S2)cc1 [Compound 170, {4-[5-(H-Indol-5-ylmethylene)-4-oxo-4,5-dihydro-thiazol-2-ylamino]-phenyl}-acetic acid] |
| (+++) (+++ = >50% inhibition) | Cc1ccc(S(=O)(=O)NC(=O)Cc2ccc(NC3=NC(=O)C(=Cc4ccc(N5CCN(c6ccccn6)CC5)cc4)S3)cc2)cc1.[Na] [Compound 173, 4-Methyl-N-[2-(4-{4-oxo-5-[4-(4-pyridin-2-yl-piperazin-1-yl)-benzylidene]-4,5-dihydro-thiazol-2-ylamino}-phenyl)-acetyl]-benzenesulfonamide sodium salt] |
| (+++) (+++ = >50% inhibition) | O=C(O)Cc1ccc(NC2=NC(=O)C(=Cc3ccc(-c4ccc(O)cc4)cc3)S2)cc1 [Compound 199, {4-[5-(4′-Hydroxy-biphenyl-4-ylmethylene)-4-oxo-4,5-dihydro-thiazol-2-ylamino]-phenyl}-acetic acid] |
| (+++) (+++ = >50% inhibition) | O=C(O)COc1ccc(-c2ccc(C=C3SC(Nc4ccc(CC(=O)O)cc4)=NC3=O)cc2)cc1 [Compound 201, {4-[5-(4′-Carboxymethoxy-biphenyl-4-ylmethylene)-4-oxo-4,5-dihydro-thiazol-2-ylamino]-phenyl}-acetic acid] |
| (+++) (+++ = >50% inhibition) | O=C([O-])CCc1ccc(NC2=NC(=O)C(=Cc3ccc4cc(F)ccc4c3)S2)cc1.[Na+] [Compound 205, 3-{4-[5-(6-Fluoro-naphthalen-2-ylmethylene)-4-oxo-4,5-dihydro-thiazol-2-ylamino]-phenyl}-sodium propionate] |
| (+++) (+++ = >50% inhibition) | NS(=O)(=O)c1ccc(-c2ccc(C=C3SC(Nc4ccc(CC(=O)O)cc4)=NC3=O)cc2)cc1 [Compound 210, {4-[4-Oxo-5-(4′-sulfamoyl-biphenyl-4-ylmethylene)-4,5-dihydro-thiazol-2-ylamino]-phenyl}-acetic acid] |
| (++) (++ = 20-50% inhibition) | Cc1ccc(S(=O)(=O)NC(=O)Cc2ccc(NC3=NC(=O)C(=Cc4ccc(-c5ccc(O)cc5)cc4)S3)cc2)cc1.[Na].[Na] [Compound 212, N-(2-{4-[5-(4′Hydroxy-biphenyl-4-ylmethylene)-4-oxo-4,5-dihydro-thiazol-2-ylamino]-phenyl}-acetyl)-4-methyl-benzenesulfonamide di-sodium salt] |
| (++) (++ = 20-50% inhibition) | Cc1ccc(S(=O)(=O)NC(=O)Cc2ccc(NC3=NC(=O)C(=Cc4cc5ccccc5cc4OCC(=O)O)S3)cc2)cc1 [Compound 213, [3-(4-Oxo-2-{4-[2-oxo-2-(toluene-4-sulfonylamino)-ethyl]-phenylamino}-4H-thiazol-5-ylidenemethyl)-naphthalen-2-yloxy]-acetic acid] |
| (+++) (+++ = >50% inhibition) | CCOc1ccc(-c2ccc(C=C3SC(Nc4ccc(CC(=O)NS(=O)(=O)c5ccc(C)cc5)cc4)=NC3=O)cc2)cc1.[Na] [Compound 214, N-(2-{4-[5-(4′-Ethoxy-biphenyl-4-ylmethylene)-4-oxo-4,5-dihydro-thiazol-2-ylamino]-phenyl}-acetyl)-4-methyl-benzenesulfonamide sodium salt] |

The next lines start with the molecule.

| SMILES | Activity Score |
| --- | --- |
| O=C(O)Cc1ccc(NC2=NC(=O)C(=Cc3ccc(-c4ccccc4)cc3)O2)cc1 [Compound 100, [4-(5-Biphenyl-4-ylmethylene-4-oxo-4,5-dihydro-oxazol-2-ylamino)-phenyl]-acetic acid] | (++) (++ = 20-50% inhibition) |
| O=C([O-])Cc1ccc(NC2=NC(=O)C(=Cc3cc4ccccc4cc3OCc3ccc(F)cc3)S2)cc1.[Na+] [Compound 113, (4-{5-[3-(4-Fluoro-benzyloxy)-naphthalen-2-ylmethylene-4-oxo-4,5-dihydro-thiazol-2-ylamino)-phenyl]-acetyl}-sodium acetate] | (+++) (+++ = >50% inhibition) |
| O=C(O)Cc1csc(NC2=NC(=O)C(=Cc3ccc(-c4ccccc4)cc3)S2)n1 [Compound 130, [2-(5-Biphenyl-4-ylmethylene-4-oxo-4,5-dihydro-thiazol-2-ylamino)-thiazol-4-yl]-acetic acid] | (++) (++ = 20-50% inhibition) |
| O=C(O)Cc1csc(NC2=NC(=O)C(=Cc3cc4ccccc4cc3OCc3ccccc3)S2)n1 [Compound 133, {2-[5-(3-Benzyloxy-naphthalen-2-ylmethylene)-4-oxo-4,5-dihydro-thiazol-2-ylamino]-thiazol-4-yl}-acetic acid] | (+++) (+++ = >50% inhibition) |
| Cc1cc(C=C2SC(Nc3nc(CC(=O)O)cs3)=NC2=O)nn1-c1ccccc1 [Compound 134, {2-[5-(5-Methyl-1-phenyl-1H-pyrazol-3-ylmethylene)-4-oxo-4,5-dihydro-thiazol-2-ylamino]-thiazol-4-yl}-acetic acid] | (++) (++ = 20-50% inhibition) |
| O=C(O)Cc1ccc(NC2=NC(=O)C(=Cc3cc4ccccc4cc3OCC3CCCO3)S2)cc1 (centres unmarked) [Compound 142, (4-{4-Oxo-5-[3-(tetrahydro-furan-2-ylmethoxy)-naphthalen-2-ylmethylene]-4,5-dihydro-thiazol-2-ylamino}-phenyl)-acetic acid] | (++) (++ = 20-50% inhibition) |
| COc1c(C=C2SC(Nc3ccc(CC(=O)O)cc3)=NC2=O)ccc2ccccc12 [Compound 146, {4-[5-(1-Methoxy-naphthalen-2-ylmethylene)-4-oxo-4,5-dihydro-thiazol-2-ylamino]-phenyl}-acetic acid] | (+++) (+++ = >50% inhibition) |
| O=C(O)COc1ccc2cc(C=C3SC(Nc4ccc(CC(=O)O)cc4)=NC3=O)ccc2c1 [Compound 163, {4-[5-(6-Carboxymethoxy-naphthalen-2-ylmethylene)-4-oxo-4,5-dihydro-thiazol-2-ylamino]-phenyl}-acetic acid] | (+++) (+++ = >50% inhibition) |
| COc1cc2ccccc2cc1C=C1SC(Nc2ccc(CCC(=O)[O-])cc2)=NC1=O.[Na+] [Compound 177, 3-{-4-[5-(3-Methoxy-naphthalen-2-ylmethylene)-4-oxo-4,5-dihydro-thiazol-2-ylamino]-phenyl}-sodium propionate] | (+++) (+++ = >50% inhibition) |
| O=C(O)Cc1ccc(NC2=NC(=O)C(=Cc3ccc(-c4ccccc4)cc3)S2)cc1C(=O)O [Compound 200, 5-(5-Biphenyl-4-ylmethylene-4-oxo-4,5-dihydro-thiazol-2-ylamino)-2-carboxymethyl-benzoic acid] | (+++) (+++ = >50% inhibition) |
